Species: Rattus norvegicus
Assay: Open TG-GATES - Regimen: Daily Repeat
Assay type: toxicity, organism-based, Sprague-Dawley
Design: regimen Daily Repeat, gender Male, age 6 weeks
Conditions: in vivo, po, 0 mg/kg, route gavage, dose level Control; for APTT / Bas / Eos / Fbg / Hb / Ht / Lym / MCH / MCHC / MCV / Mono / Neu / PT / Plat / RBC / Ret / WBC: tissue Blood; for KIDNEY_L / KIDNEY_R / KIDNEY_TOTAL: tissue Kidney; for LIVER: tissue Liver; for A/G / ALP / ALT / AST / BUN / CRE / Ca / Cl / DBIL / GLC / IP / K / LDH / Na / PL / RALB / TBIL / TC / TG / TP / gamma-GTP: tissue Plasma

CN1C(=O)CCS(=O)(=O)C1c1ccc(Cl)cc1 (configuration not stated) [CHLORMEZANONE]
TERMINAL_BW (72 h, time 3 day): 227.8 g
APTT (72 h, time 3 day): 15.7 s
Bas (72 h, time 3 day): 0%
Eos (72 h, time 3 day): 1%
Fbg (72 h, time 3 day): 283.6 mg/dL
Hb (72 h, time 3 day): 13.4 g/dL
Ht (72 h, time 3 day): 39.1%
Lym (72 h, time 3 day): 77.8%
MCH (72 h, time 3 day): 22.1 pg
MCHC (72 h, time 3 day): 34.4%
MCV (72 h, time 3 day): 64.3 fL
Mono (72 h, time 3 day): 3%
Neu (72 h, time 3 day): 17.8%
PT (72 h, time 3 day): 12 s
Plat (72 h, time 3 day): 114.7 x10_4/uL
RBC (72 h, time 3 day): 608.2 x10_4/ul
Ret (72 h, time 3 day): 6.7%
WBC (72 h, time 3 day): 81.1 x10_2/uL
KIDNEY_L (72 h, time 3 day): 0.9 g
KIDNEY_R (72 h, time 3 day): 0.9 g
KIDNEY_TOTAL (72 h, time 3 day): 1.8 g
LIVER (72 h, time 3 day): 10.6 g
A/G (72 h, time 3 day): 0.9
ALP (72 h, time 3 day): 1545.4 IU/L
ALT (72 h, time 3 day): 48.4 IU/L
AST (72 h, time 3 day): 68.2 IU/L
BUN (72 h, time 3 day): 14.6 mg/dL
CRE (72 h, time 3 day): 0.2 mg/dL
Ca (72 h, time 3 day): 10.9 mg/dL
Cl (72 h, time 3 day): 108.4 meq/L
DBIL (72 h, time 3 day): 0.01 mg/dL
GLC (72 h, time 3 day): 193.6 mg/dL
IP (72 h, time 3 day): 6.7 mg/dL
K (72 h, time 3 day): 4.2 meq/L
LDH (72 h, time 3 day): 63.4 IU/L
Na (72 h, time 3 day): 143.4 meq/L
PL (72 h, time 3 day): 148.4 mg/dL
RALB (72 h, time 3 day): 2.7 g/dL
TBIL (72 h, time 3 day): 0.026 mg/dL
TC (72 h, time 3 day): 88.8 mg/dL
TG (72 h, time 3 day): 90 mg/dL
TP (72 h, time 3 day): 5.8 g/dL
gamma-GTP (72 h, time 3 day): 1.2 IU/L
TERMINAL_BW ([…], time 7 day): 269.2 g
TERMINAL_BW ([…], time 14 day): 301.6 g
TERMINAL_BW ([…], time 28 day): 393 g
APTT ([…], time 7 day): 17.6 s
Bas ([…], time 7 day): 0%
Eos ([…], time 7 day): 0.8%
Fbg ([…], time 7 day): 294.6 mg/dL
Hb ([…], time 7 day): 13.9 g/dL
Ht ([…], time 7 day): 41%
Lym ([…], time 7 day): 79.4%
MCH ([…], time 7 day): 22.1 pg
MCHC ([…], time 7 day): 33.9%
MCV ([…], time 7 day): 65.3 fL
Mono ([…], time 7 day): 2.4%
Neu ([…], time 7 day): 16.6%
PT ([…], time 7 day): 11.9 s
Plat ([…], time 7 day): 113.1 x10_4/uL
RBC ([…], time 7 day): 627.6 x10_4/ul
Ret ([…], time 7 day): 6.5%
WBC ([…], time 7 day): 91.2 x10_2/uL
APTT ([…], time 14 day): 16.9 s
Bas ([…], time 14 day): 0%
Eos ([…], time 14 day): 1%
Fbg ([…], time 14 day): 306.8 mg/dL
Hb ([…], time 14 day): 14.5 g/dL
Ht ([…], time 14 day): 41.2%
Lym ([…], time 14 day): 76.2%
MCH ([…], time 14 day): 20.7 pg
MCHC ([…], time 14 day): 35.3%
MCV ([…], time 14 day): 58.8 fL
Mono ([…], time 14 day): 2%
Neu ([…], time 14 day): 20.4%
PT ([…], time 14 day): 11.8 s
Plat ([…], time 14 day): 123 x10_4/uL
RBC ([…], time 14 day): 701 x10_4/ul
Ret ([…], time 14 day): 3.5%
WBC ([…], time 14 day): 70.8 x10_2/uL
APTT ([…], time 28 day): 17.9 s
Bas ([…], time 28 day): 0%
Eos ([…], time 28 day): 1%
Fbg ([…], time 28 day): 293.6 mg/dL
Hb ([…], time 28 day): 15 g/dL
Ht ([…], time 28 day): 42.2%
Lym ([…], time 28 day): 75.4%
MCH ([…], time 28 day): 20.2 pg
MCHC ([…], time 28 day): 35.5%
MCV ([…], time 28 day): 56.8 fL
Mono ([…], time 28 day): 2.4%
Neu ([…], time 28 day): 20.6%
PT ([…], time 28 day): 11.8 s
Plat ([…], time 28 day): 99.4 x10_4/uL
RBC ([…], time 28 day): 744.8 x10_4/ul
Ret ([…], time 28 day): 2.6%
WBC ([…], time 28 day): 82.8 x10_2/uL
KIDNEY_L ([…], time 7 day): 1 g
KIDNEY_R ([…], time 7 day): 1 g
KIDNEY_TOTAL ([…], time 7 day): 2.1 g
KIDNEY_L ([…], time 14 day): 1.2 g
KIDNEY_R ([…], time 14 day): 1.1 g
KIDNEY_TOTAL ([…], time 14 day): 2.3 g
KIDNEY_L ([…], time 28 day): 1.4 g
KIDNEY_R ([…], time 28 day): 1.3 g
KIDNEY_TOTAL ([…], time 28 day): 2.7 g
LIVER ([…], time 7 day): 13 g
LIVER ([…], time 14 day): 12.6 g
LIVER ([…], time 28 day): 16 g
A/G ([…], time 7 day): 0.9
ALP ([…], time 7 day): 1745 IU/L
ALT ([…], time 7 day): 44 IU/L
AST ([…], time 7 day): 68.2 IU/L
BUN ([…], time 7 day): 16.6 mg/dL
CRE ([…], time 7 day): 0.2 mg/dL
Ca ([…], time 7 day): 11.6 mg/dL
Cl ([…], time 7 day): 107.8 meq/L
DBIL ([…], time 7 day): 0.016 mg/dL
GLC ([…], time 7 day): 181.4 mg/dL
IP ([…], time 7 day): 6.9 mg/dL
K ([…], time 7 day): 4.3 meq/L
LDH ([…], time 7 day): 89.8 IU/L
Na ([…], time 7 day): 144 meq/L
PL ([…], time 7 day): 152 mg/dL
RALB ([…], time 7 day): 2.8 g/dL
TBIL ([…], time 7 day): 0.034 mg/dL
TC ([…], time 7 day): 82.6 mg/dL
TG ([…], time 7 day): 121.6 mg/dL
TP ([…], time 7 day): 6 g/dL
gamma-GTP ([…], time 7 day): 1 IU/L
A/G ([…], time 14 day): 0.8
ALP ([…], time 14 day): 1484.4 IU/L
ALT ([…], time 14 day): 48 IU/L
AST ([…], time 14 day): 63.8 IU/L
BUN ([…], time 14 day): 14.4 mg/dL
CRE ([…], time 14 day): 0.2 mg/dL
Ca ([…], time 14 day): 11.2 mg/dL
Cl ([…], time 14 day): 107.8 meq/L
DBIL ([…], time 14 day): 0.008 mg/dL
GLC ([…], time 14 day): 191.6 mg/dL
IP ([…], time 14 day): 6.3 mg/dL
K ([…], time 14 day): 4 meq/L
LDH ([…], time 14 day): 47 IU/L
Na ([…], time 14 day): 143.6 meq/L
PL ([…], time 14 day): 136.4 mg/dL
RALB ([…], time 14 day): 2.8 g/dL
TBIL ([…], time 14 day): 0.064 mg/dL
TC ([…], time 14 day): 70.8 mg/dL
TG ([…], time 14 day): 74.8 mg/dL
TP ([…], time 14 day): 6.1 g/dL
gamma-GTP ([…], time 14 day): 1 IU/L
A/G ([…], time 28 day): 0.8
ALP ([…], time 28 day): 1035.2 IU/L
ALT ([…], time 28 day): 45.6 IU/L
AST ([…], time 28 day): 62.8 IU/L
BUN ([…], time 28 day): 14 mg/dL
CRE ([…], time 28 day): 0.3 mg/dL
Ca ([…], time 28 day): 10.8 mg/dL
Cl ([…], time 28 day): 106.2 meq/L
DBIL ([…], time 28 day): 0.006 mg/dL
GLC ([…], time 28 day): 183.2 mg/dL
IP ([…], time 28 day): 6 mg/dL
K ([…], time 28 day): 4 meq/L
LDH ([…], time 28 day): 57 IU/L
Na ([…], time 28 day): 142.4 meq/L
PL ([…], time 28 day): 143.6 mg/dL
RALB ([…], time 28 day): 2.8 g/dL
TBIL ([…], time 28 day): 0.062 mg/dL
TC ([…], time 28 day): 74.8 mg/dL
TG ([…], time 28 day): 88 mg/dL
TP ([…], time 28 day): 6.3 g/dL
gamma-GTP ([…], time 28 day): 1 IU/L

From ChEMBL document CHEMBL3885861, “Open TG-GATES”
